These results are taken from ChEMBL document CHEMBL1131163 (J Med Chem, 1998).

This test concerns the target D(2) dopamine receptor (Rattus norvegicus) (UniProt P61169).

SMILES strings stand for the structures.

Sequence of D(2) dopamine receptor (Rattus norvegicus) (P61169 whole entry, looked up): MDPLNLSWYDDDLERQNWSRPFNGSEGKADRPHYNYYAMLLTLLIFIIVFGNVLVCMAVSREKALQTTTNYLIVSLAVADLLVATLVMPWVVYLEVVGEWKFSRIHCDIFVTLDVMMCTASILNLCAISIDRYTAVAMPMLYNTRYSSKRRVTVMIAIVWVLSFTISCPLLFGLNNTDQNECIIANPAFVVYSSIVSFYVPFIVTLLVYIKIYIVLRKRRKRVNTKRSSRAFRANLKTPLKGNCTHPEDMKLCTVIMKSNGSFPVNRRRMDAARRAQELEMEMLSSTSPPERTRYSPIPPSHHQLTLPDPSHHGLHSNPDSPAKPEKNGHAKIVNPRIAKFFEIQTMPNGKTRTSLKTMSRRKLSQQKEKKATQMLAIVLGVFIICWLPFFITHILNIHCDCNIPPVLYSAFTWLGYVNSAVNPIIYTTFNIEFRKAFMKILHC

Regarding `CN1C[C@H](C(N)=O)C=C2c3cccc4[nH]c(Br)c(c34)C[C@H]21`, the Ki – broadly, the dissociation constant of the complex between target and ligand, obtained from inhibition or displacement – was 2 nM.
